{"source": "patent US20080171716A1", "about": "“NUCLEIC ACID MODULATION OF TOLL-LIKE RECEPTOR-MEDIATED IMMUNE STIMULATION” (Protiva Biotherapeutics, Inc., priority 2006, published 2008)", "molecular_target": "T1, TLR9 (Homo sapiens, UniProt Q9NR96)", "T1 construct": "these experiments were repeated in human PBMC cultures; endogenous in cells; host or cells: primary human PBMCs", "T1 sequence (Q9NR96 26-1032)": "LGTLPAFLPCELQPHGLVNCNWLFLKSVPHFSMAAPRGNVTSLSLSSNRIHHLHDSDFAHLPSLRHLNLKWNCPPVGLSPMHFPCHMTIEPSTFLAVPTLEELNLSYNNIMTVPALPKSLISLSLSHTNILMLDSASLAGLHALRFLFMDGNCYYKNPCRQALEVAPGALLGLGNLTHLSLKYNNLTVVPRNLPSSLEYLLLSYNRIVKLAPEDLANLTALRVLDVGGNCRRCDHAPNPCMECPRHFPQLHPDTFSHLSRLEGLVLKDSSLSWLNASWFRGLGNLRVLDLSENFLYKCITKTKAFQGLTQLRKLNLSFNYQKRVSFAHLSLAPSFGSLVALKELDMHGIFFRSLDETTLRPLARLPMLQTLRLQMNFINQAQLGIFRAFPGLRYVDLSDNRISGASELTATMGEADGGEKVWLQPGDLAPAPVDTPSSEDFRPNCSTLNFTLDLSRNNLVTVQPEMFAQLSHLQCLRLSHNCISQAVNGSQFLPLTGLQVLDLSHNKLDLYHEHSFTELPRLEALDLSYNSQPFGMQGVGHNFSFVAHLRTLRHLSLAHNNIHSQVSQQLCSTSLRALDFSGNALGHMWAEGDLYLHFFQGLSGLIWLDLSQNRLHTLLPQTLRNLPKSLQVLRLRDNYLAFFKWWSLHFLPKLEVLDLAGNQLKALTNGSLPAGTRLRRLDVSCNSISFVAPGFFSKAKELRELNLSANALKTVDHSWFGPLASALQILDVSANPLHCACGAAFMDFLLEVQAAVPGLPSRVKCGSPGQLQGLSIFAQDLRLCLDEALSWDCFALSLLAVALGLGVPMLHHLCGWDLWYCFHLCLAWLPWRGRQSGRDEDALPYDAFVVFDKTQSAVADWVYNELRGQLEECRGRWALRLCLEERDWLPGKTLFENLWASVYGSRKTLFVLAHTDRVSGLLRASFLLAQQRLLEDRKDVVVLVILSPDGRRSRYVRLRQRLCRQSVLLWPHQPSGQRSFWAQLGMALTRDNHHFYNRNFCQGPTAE", "assay": "CpG ODN (TLR9 agonist)-induced cytokine production in human PBMCs", "assay_type": "cell-based", "procedure": "All RNA molecules used in this study were heated at 90° C. for 3 min. and then placed at 37° C. for 60 min. Non-denaturing PAGE analysis on a 20% polyacrylamide gel was performed to confirm that ssRNA molecules were intact and that no duplexes had formed upon heating. The RNA molecules were encapsulated in a SNALP formulation comprising PEG-cDMA:DLinDMA:cholesterol:DSPC in a 2:40:48:10 mol % ratio (2:40 SNALP), prepared using a syringe press process.\nFresh human peripheral blood mononuclear cells (PBMCs) were isolated and seeded at about 3×10^5 cells/well in a total volume of 180 μl. Next, 20 μl of the appropriate SNALP diluted in PBS or 10 μl of naked TLR agonist were added to the PBMCs. For time course experiments, PBMCs were pretreated with UmodS ssRNA or a control and the appropriate naked TLR agonist was added at 0, 0.5, or 2 hours after pretreatment. When the SNALP and naked TLR agonist were added separately, the SNALP was added first followed by the naked TLR agonist. At t=24 hr., the cell supernatant was harvested and IFN-α and/or IL-6 levels were determined using ELISA.\nLipid Encapsulation of RNA and ODN. RNA or ODN were encapsulated in liposomes by a process of spontaneous vesicle formation as described in Judge et al., supra, and Jeffs et al., Pharm. […]\nCytokine ELISA. All cytokines were quantified using sandwich ELISA kits according to the manufacturer's instructions. […]", "note": "m = 2'-O-methyl; r = 2'-OH (RNA)", "data": [{"substance": "Luc UmodS: Luc sense strand ssRNA with 2′OMe at uridines: GAmUmUAmUGmUCCGGmUmUAmUGmUAUU (sense GAUUAUGUCCGGUUAUGUAUU; sugars from the 5' end rrmmrmrmrrrrmmrmrmrrr, backbone not given here)", "values": [{"measurement": "IL-6 levels induced by naked ODN2006 (TLR9 agonist, phosphorothioate CpG Type B)", "setting": "human PBMCs pretreated with SNALP-encapsulated ssRNA", "value": "no reduction"}, {"measurement": "level of IFN-α induced by naked ODN2216 (TLR9 agonist, phosphorothioate CpG Type A)", "setting": "human PBMCs, SNALP-encapsulated ssRNA plus naked ODN", "value": "increased"}]}]}
